Data published in patent US20020018808A1, “Vaccines against sterols” (priority 1990, published 2002).

Columns and labels:
[1] = ELISA of antisera from mice immunized with sterol-containing liposomes; format: in vivo, BALB/c mice
Description: Accordingly, the following study is designed to assess the immunogenicity of different cholesterol or sterol analogs for use in a vaccine to prevent hyper-cholesterolemia. Briefly summarized, several sterols such as cholesterol, vitamin D2, cholesteryl oleate, cholesteryl myristate, 4-cholesten-3-one, and phosphatidylcholesterol (17β-Linkage) and (3β-Linkage), are incorporated into liposomes containing DPMC (1.8), DMPG (0.2), Chol (1.5) (mol/mol) and lipid A (25 to 200 μg/mol, preferably 25 μg/mol phospholipid) so that the phospholipid concentration remains constant. These liposomes are inoculated into BALB/c mice i.p. at day 0 and day 14. Mice are bled at day 14 and day 21 and antibodies specific for the antigen are assessed by ELISA using the antigen itself or crystalline cholesterol.
Multilamellar vesicles (“MLV”) are produced by aliquotting DMPC:DMPG:Cholesterol, 9:1:7.5 (mol/mol), and lipid A at 25 to 200 μg/Imol phospholipid into a round bottom flask. The mixture is rotary evaporated, desiccated, and hydrated in sterile, deionized water. Lipids are lyophilized and reconstituted in PBS to 10 mM with respect to phospholipids and assayed for total phosphorous.
Male BALB/c mice, 6-8 weeks old, are bled and then immunized with 0.1 ml liposomes containing 1 μmol total phospholipid and 25-200 μg monophosphoryl lipid A ip. At 14 day intervals, mice are bled and sera collected. […]

[2] = Complement-dependent immune lysis assay of antisera (glucose release from liposomes); set-up: species or system BALB/c mice
Description: This assay measures antibody-mediated, complement-dependent release of encapsulated glucose from liposomes. Released glucose is measured spectrophotometrically using a Tris-buffered assay reagent containing hexokinase, glucose-6-phosphate dehydrogenase, ATP, and NADP. This particular assay is a measurement of antibody functional activity, rather than particle (antibody) detection.
In addition, the antisera from mice vaccinated with phosphatidylcholesterol could detect cholesterol present in liposomes containing 43% cholesterol as well as 71% cholesterol, and were equally as active against liposomes containing phosphatidylcholesterol in a complement-dependent immune lysis assay. […] In the above antibody-dependent immune lysis assays, a release greater than 5% indicates a positive reaction.
The test liposomes contained or lacked 5 mol % phosphatidylcholesterol. The antisera were tested using a complement-dependent immune lysis assay, wherein a release greater than 5% indicated a positive reaction.

Compound | Antibody isotype induced ([1]; mice, detected by ELISA (FIG. 8)) | Reactivity of generated antibody ([1]; compound of Example VI in liposomes) | Glucose release of test liposomes ([2]; immune lysis assay, liposomes composed of 5% phosphatidylcholesterol (17β-Linkage)) | Liposome integrity in antibody-mediated immune lysis assay ([2]; more than 5 mol % phosphatidylcholesterol in liposomes containing 43 mol % cholesterol)
CC(C)CCC[C@@H](C)[C@H]1CC[C@H]2[C@@H]3CC=C4C[C@@H](O)CC[C@]4(C)[C@H]3CC[C@]12C [cholesterol] | induce primarily IgM | – | – | –
CCCCCCCCCCCCCC(=O)OCC(COP(=O)(O)OCCNC(=O)[C@H]1CC[C@H]2[C@@H]3CC=C4C[C@@H](O)CC[C@]4(C)[C@H]3CC[C@]12C)OC(=O)CCCCCCCCCCCCC (stereo partly drawn) [phosphatidylcholesterol (17β-Linkage), N-(5-Androsten-3β-OL-17β-amido) dimyristoylphosphatidylethanolamine] | – | IgG antibody that reacts with crystalline cholesterol, 43% cholesterol liposomes, and 71% liposomes | glucose release equivalent to liposomes containing 43% and 71% cholesterol | leaky liposomes
